Experimental data from patent publication US12281079B2, “Quinoline derivatives, processes for their preparation and uses thereof for the treatment of cancer” (Lead Discovery Center GmbH, priority 2019, dated 2025).

Legend:
[1] = target: mitochondrial RNA polymerase (POLRMT) (Mus musculus, UniProt Q8BKF1); assay: Homogeneous TR-FRET assay for mitochondrial transcription activity; type: biochemical; settings: homogeneous TR-FRET assay according to Example 4
Outline: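 Read-out is TR-FRET (ex 340, em 665 nm) from two adjacent labelled DNA probes annealing to the 407 bp transcript after EDTA/700 mM NaCl stop. Reaction: murine POLRMT, TFAM, TFB2M and LSP plasmid template, compound 10 μM or serial dilution, 10 min rt preincubation, 500 μM each nucleotide, 2 h rt.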

[2] = tested on: mitochondrial transcription (7S RNA) in HeLa cells; assay: Quantitative real time-PCR assay of inhibition of mitochondrial transcription (7S RNA) in HeLa cells; type: cell-based; settings: Homo sapiens, 4 h compound incubation, according to Example 5, read-out: cellular qPCR assay
Procedure: Quantitative real-time PCR (qRT-PCR), based on the TaqMan™ (Thermo Fisher Scientific, Waltham Mass.) technology, was carried out essentially as described in Held et al. (1996). HeLa cells were plated one day before compound treatment in RPMI medium supplemented with 10% Fetal Calf Serum and 2 mM L-glutamine. Cells were incubated with dilution series of compounds or vehicle (DMSO) for 4 h, prior to harvest and extraction of the RNA using the RNeasy Mini Kit (Qiagen, Hilden D), according to the manufacturer's instructions. RNA concentrations were measured spectroscopically, using a NanoDrop-2000 (Thermo Fisher Scientific, Waltham Mass.) and normalized prior to cDNA synthesis, using a ‘High-Capacity cDNA Reverse Transcription Kit’ (Thermo Fisher Scientific, Waltham Mass.). qRT-PCR was carried out using the ‘TaqMan Fast Advance Master Mix’ (Thermo Fisher Scientific, Waltham Mass.) on a 7500 Fast Real-Time PCR machine (Applied Biosystems, Foster City Calif.)
For these measurements, three genes were used to compare the effect of the scrutinized compounds in relation to their concentration. The POLRMT-gene was used to detect potential influences on nuclear transcription. Mitochondrial transcription in vivo was monitored by measurements 7S RNA. The TBP (TATA-box binding protein) gene was employed as the control (housekeeping gene) during qRT-PCR. The short-lived mitochondrial 7S RNA, which is not post-transcriptionally stabilized, allowed us to monitor rapid changes in mitochondrial transcription activity following compound addition. Biological triplicates were analyzed using the comparative CT Method (ΔΔCt) method (Bubner and Baldwin, 2004) and reported as Rq % values (Rq=Relative quantification=2−ΔΔCt).

Chain of mitochondrial RNA polymerase (POLRMT) (Q8BKF1 42-1207): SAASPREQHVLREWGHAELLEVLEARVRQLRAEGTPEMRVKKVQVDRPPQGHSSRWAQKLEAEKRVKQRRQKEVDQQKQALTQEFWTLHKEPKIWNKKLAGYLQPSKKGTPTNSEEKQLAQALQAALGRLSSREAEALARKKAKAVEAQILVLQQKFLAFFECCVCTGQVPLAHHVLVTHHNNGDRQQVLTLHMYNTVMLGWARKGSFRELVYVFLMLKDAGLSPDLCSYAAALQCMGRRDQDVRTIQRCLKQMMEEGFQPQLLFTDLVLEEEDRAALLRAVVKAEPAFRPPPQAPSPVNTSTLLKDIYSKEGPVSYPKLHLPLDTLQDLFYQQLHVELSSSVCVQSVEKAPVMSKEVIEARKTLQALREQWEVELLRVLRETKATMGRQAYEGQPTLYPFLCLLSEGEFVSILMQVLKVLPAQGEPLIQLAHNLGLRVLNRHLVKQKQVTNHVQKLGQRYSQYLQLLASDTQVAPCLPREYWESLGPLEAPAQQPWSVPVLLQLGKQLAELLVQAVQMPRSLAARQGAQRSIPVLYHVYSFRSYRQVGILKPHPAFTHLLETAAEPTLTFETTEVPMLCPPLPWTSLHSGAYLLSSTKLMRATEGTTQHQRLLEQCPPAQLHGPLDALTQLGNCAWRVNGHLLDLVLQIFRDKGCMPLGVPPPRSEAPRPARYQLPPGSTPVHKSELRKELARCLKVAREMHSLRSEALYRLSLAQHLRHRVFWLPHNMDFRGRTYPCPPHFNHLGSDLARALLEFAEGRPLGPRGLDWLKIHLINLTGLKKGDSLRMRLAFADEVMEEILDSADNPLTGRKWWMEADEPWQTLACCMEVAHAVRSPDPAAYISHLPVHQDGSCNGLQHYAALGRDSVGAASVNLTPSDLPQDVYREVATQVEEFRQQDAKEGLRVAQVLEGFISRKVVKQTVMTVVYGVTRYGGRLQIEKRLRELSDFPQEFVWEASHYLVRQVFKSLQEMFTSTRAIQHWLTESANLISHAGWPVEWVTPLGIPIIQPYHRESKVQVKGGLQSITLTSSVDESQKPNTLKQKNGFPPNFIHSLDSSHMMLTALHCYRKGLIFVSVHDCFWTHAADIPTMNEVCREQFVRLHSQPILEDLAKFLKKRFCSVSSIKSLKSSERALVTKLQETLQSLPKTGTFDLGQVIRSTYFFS

Compound | IC50 [1] [nM] | IC50 [2] [nM]
C[C@@H](Oc1ccc2c(-c3ccc(F)cc3Cl)ccnc2c1)C(=O)N1CCC[C@@H](C(=O)O)C1 [Compound 17, (3R)-1-[(2R)-2-[[4-(2-chloro-4-fluoro-phenyl)-7-quinolyl]oxy]propanoyl]piperidine-3-carboxylic acid] | 20 to 100 | 50 to 500
C[C@@H](Oc1ccc2c(-c3ccc(F)cc3Cl)ccnc2c1)C(=O)NC1CC1 [Compound 77, (2R)-2-[[4-(2-chloro-4-fluoro-phenyl)-7-quinolyl]oxy]-N-cyclopropyl-propanamide] | 100 to 1000 | 50 to 500
C[C@@H](Oc1ccc2c(-c3c(Cl)cc(F)cc3Cl)ccnc2n1)C(=O)N1CCC[C@H](CC(=O)O)C1 [Compound 220, 2-[(3R)-1-[(2R)-2-[[5-(2,6-dichloro-4-fluoro-phenyl)-1,8-naphthyridin-2-yl]oxy]propanoyl]-3-piperidyl]acetic acid] | 20 to 100 | < 10
Cc1cc(F)cc(C)c1-c1ccnc2cc(O[C@H](C)C(=O)N3C(C)CCCC3C)ccc12 (mixture of isomers) [Compound 191, rac-(2R)-1-(2,6-dimethyl-1-piperidyl)-2-[[4-(4-fluoro-2,6-dimethyl-phenyl)-7-quinolyl]oxy]propan-1-one] | < 20 | < 10
Cc1cc(F)cc(C)c1-c1ccnc2cc(O[C@H](C)C(=O)N3CCCC(C4(O)CC4)C3)ccc12 (mixture of isomers) [Compound 180, rac-(2R)-2-[[4-(4-fluoro-2,6-dimethyl-phenyl)-7-quinolyl]oxy]-1-[3-(1-hydroxycyclopropyl)-1-piperidyl]propan-1-one] | < 20 | < 10
C[C@@H](Oc1ccc2c(-c3ccccc3Cl)ccnc2c1)C(=O)N(C)C [Compound 88, (2R)-2-[[4-(2-chlorophenyl)-7-quinolyl]oxy]-N,N-dimethyl-propanamide] | 1000 to 10000 | 50 to 500
Cc1cc(F)cc(C)c1-c1ccnc2cc(O[C@H](C)C(=O)N3CCCC(C4(C(=O)O)CC4)C3)ccc12 (mixture of isomers) [Compound 182, 1-[1-[rac-(2R)-2-[[4-(4-fluoro-2,6-dimethyl-phenyl)-7-quinolyl]oxy]propanoyl]-3-piperidyl]cyclopropanecarboxylic acid] | < 20 | < 10
C[C@@H](Oc1ccc2c(-c3ccc(F)cc3Cl)ccnc2c1)C(=O)N1CCCC(S(N)(=O)=O)C1 (mixture of isomers) [Compound 33, 1-[rac-(2R)-2-[[4-(2-chloro-4-fluoro-phenyl)-7-quinolyl]oxy]propanoyl]piperidine-3-sulfonamide] | 100 to 1000 | < 10
C[C@@H](Oc1ccc2c(-c3ccccc3Cl)cc(Cl)nc2c1)C(=O)N1CCC[C@H](CC(=O)O)C1 [Compound 83, 2-[(3R)-1-[(2R)-2-[[2-chloro-4-(2-chlorophenyl)-7-quinolyl]oxy]propanoyl]-3-piperidyl]acetic acid] | 1000 to 10000 | 500 to 5000
CCOC(=O)[C@@H](C)Oc1ccc2c(-c3ccccc3Cl)ccnc2c1 [Compound 50, ethyl (2R)-2-[[4-(2-chlorophenyl)-7-quinolyl]oxy]propanoate] | 100 to 1000 | 10 to 50
C[C@@H](Oc1ccc2c(-c3ccc(F)cc3Cl)ccnc2c1)C(=O)N(C)C [Compound 45, (2R)-2-[[4-(2-chloro-4-fluoro-phenyl)-7-quinolyl]oxy]-N,N-dimethyl-propanamide] | 100 to 1000 | 50 to 500
C[C@@H](Oc1ccc2c(-c3ccc(F)cc3Cl)ccnc2c1)C(=O)N1CCC[C@H](C#N)C1 [Compound 30, (3S)-1-[(2R)-2-[[4-(2-chloro-4-fluoro-phenyl)-7-quinolyl]oxy]propanoyl]piperidine-3-carbonitrile] | 100 to 1000 | 10 to 50
C[C@@H](Oc1ccc2c(-c3ccc(F)cc3Cl)ccnc2c1)C(=O)Nc1ccc(C(=O)O)cc1 [Compound 60, 4-[[(2R)-2-[[4-(2-chloro-4-fluoro-phenyl)-7-quinolyl]oxy]propanoyl]amino]benzoic acid] | 100 to 1000 | 50 to 500
C[C@@H](Oc1ccc2c(-c3ccc(F)cc3Cl)cc(Cl)nc2c1)C(=O)N1CCC[C@H](C(=O)O)C1 [Compound 64, (3S)-1-[(2R)-2-[[2-chloro-4-(2-chloro-4-fluoro-phenyl)-7-quinolyl]oxy]propanoyl]piperidine-3-carboxylic acid] | 100 to 1000 | 50 to 500
C[C@@H](Oc1ccc2c(-c3ccc(F)cc3Cl)ccnc2c1)C(=O)N1CC[C@@H](NC(=O)NC(C)(C)C)C1 [Compound 214, 1-tertbutyl-3-[(3R)-1-[(2R)-2-[[4-(2-chloro-4-fluoro-phenyl)-7-quinolyl]oxy]propanoyl]pyrrolidin-3-yl]urea] | 100 to 1000 | 50 to 500
CCc1ccccc1-c1ccnc2cc(O[C@H](C)C(=O)N3CCC[C@H](CC(=O)O)C3)ccc12 [Compound 121, 2-((R)-1-((R)-2-((4-(2-ethylphenyl)quinolin-7-yl)oxy)propanoyl)piperidin-3-yl)acetic acid] | 20 to 100 | 10 to 50
C[C@@H](Oc1ccc2c(-c3ccc(F)cc3Cl)ccnc2c1)C(=O)N1CCOCC1 [Compound 206, (2R)-2-[[4-(2-chloro-4-fluoro-phenyl)-7-quinolyl]oxy]-1-morpholino-propan-1-one] | 100 to 1000 | 10 to 50
Cc1cc(F)cc(C)c1-c1ccnc2cc(O[C@H](C)C(=O)N3CCCC[C@H]3C)ccc12 [Compound 187, (2R)-2-[[4-(4-fluoro-2,6-dimethyl-phenyl)-7-quinolyl]oxy]-1-[(2R)-2-methyl-1-piperidyl]propan-1-one] | < 20 | < 10
CCOC(=O)[C@H]1CCCN(C(=O)[C@@H](C)Oc2ccc3c(-c4ccccc4C)ccnc3c2)C1 [Compound 14, ethyl (3S)-1-[(2R)-2-[[4-(o-tolyl)-7-quinolyl]oxy]propanoyl]piperidine-3-carboxylate] | 20 to 100 | 50 to 500
C[C@@H](Oc1ccc2c(-c3ccc(F)cc3Cl)cc(Cl)nc2c1)C(=O)N1CCC[C@H](C(N)=O)C1 [Compound 81, (3S)-1-[(2R)-2-[[2-chloro-4-(2-chloro-4-fluoro-phenyl)-7-quinolyl]oxy]propanoyl]piperidine-3-carboxamide] | 1000 to 10000 | 50 to 500
C[C@@H](Oc1ccc2c(-c3c(Cl)cc(F)cc3Cl)ccnc2c1)C(=O)N1CCC[C@H](CC(=O)O)C1 [Compound 192, 2-[(3R)-1-[(2R)-2-[[4-(2,6-dichloro-4-fluoro-phenyl)-7-quinolyl]oxy]propanoyl]-3-piperidyl]acetic acid] | 20 to 100 | < 10
Cc1cc(F)cc(C)c1-c1ccnc2cc(O[C@H](C)C(=O)N3CCCC(C(C)(C)C(=O)O)C3)ccc12 (mixture of isomers) [Compound 186, 2-methyl-2-[1-[rac-(2R)-2-[[4-(4-fluoro-2,6-dimethyl-phenyl)-7-quinolyl]oxy]propanoyl]-3-piperidyl]propanoic acid] | < 20 | < 10
C[C@@H](Oc1ccc2c(-c3ccccc3Cl)ccnc2c1)C(=O)N1CCC(CCC(=O)O)CC1 [Compound 118, 3-[1-[(2R)-2-[[4-(2-chlorophenyl)-7-quinolyl]oxy]propanoyl]-4-piperidyl]propanoic acid] | < 20 | 10 to 50
CC(Oc1ccc2c(-c3ccc(F)cc3Cl)ccnc2n1)C(=O)N1CCC[C@H](CC(=O)O)C1 (mixture of isomers) [Compound 80, 2-[rac-(3R)-1-[2-[[5-(2-chloro-4-fluoro-phenyl)-1,8-naphthyridin-2-yl]oxy]propanoyl]-3-piperidyl]acetic acid] | 1000 to 10000 | 50 to 500
C[C@@H](Oc1ccc2c(-c3ccc(F)cc3Cl)ccnc2c1)C(=O)N1CCC[C@H](CC(=O)O)C1 [Compound 18, 2-((R)-1-((R)-2-((4-(2-chloro-4-fluorophenyl)quinolin-7-yl)oxy)propanoyl)piperidin-3-yl)acetic acid] | 20 to 100 | 50 to 500
C[C@@H](Oc1ccc2c(-c3ccccc3Cl)cc(Cl)nc2c1)C(=O)N1CCN(C(=O)C2CC2)CC1 [Compound 70, (2R)-2-[[2-chloro-4-(2-chlorophenyl)-7-quinolyl]oxy]-1-[4-(cyclopropanecarbonyl)piperazin-1-yl]propan-1-one] | 100 to 1000 | 500 to 5000
Cc1ccccc1-c1cc(Cl)nc2cc(O[C@H](C)C(=O)N3CCC[C@H](C(=O)O)C3)ccc12 [Compound 25, (3S)-1-[(2R)-2-[[2-chloro-4-(o-tolyl)-7-quinolyl]oxy]propanoyl]piperidine-3-carboxylic acid] | 20 to 100 | 10 to 50
CCNC(=O)[C@@H](C)Oc1ccc2c(-c3ccc(F)cc3Cl)ccnc2c1 [Compound 131] | 1000 to 10000 | 50 to 500
